According to patent publication US10144713B1, “Bis-cyclic guanidines as antibacterial agents” (UNIVERSITY OF SOUTH FLORIDA, priority 2017, dated 2018):

What was measured:
Type in all cases: cell-based
[1] = test system: E. coli (ATCC 25922); experiment: MIC against E. coli; conditions: Escherichia coli, ATCC25922; Gram −; 16 h, 37° C.
Description: (§1) Minimum Inhibitory Concentrations (MICs) Against Bacteria.
(§2) The antimicrobial activity of the compounds was tested on the following six bacteria strains: K. pneumoniae (ATCC 13383), P. aeruginosa (ATCC27853), E. coli (ATCC 25922), vancomycin-resistant Enterococcus faecalis(ATCC 700802), Methicillin-resistant S. aureus (MRSA, ATCC 33591), Methicillin-resistant S. epidermidis (MRSE, RP62A). The procedures were followed as reported previously (Hancock et al., Immunobiology 2006, 211, 315-322). Briefly, a single colony of each bacterium was inoculated in 3 mL TSB medium and incubated overnight at 37° C. Then the bacteria culture was diluted at 1:100 and the bacteria were allowed to grow to mid-logarithmic phase. Next, 50 μL of 2-fold serial dilutions of compounds (0.1-25 μg/mL) were added the 96-well plate containing aliquots of 50 μL of bacteria suspension (1×10^6 CFU/mL) in each well. The mixture was incubated at 37° C. for 16 h, and their absorption at 600 nm wavelength was read on a Biotek Synergy HT microtiter plate reader. […] The experiments were repeated at least three times with duplicates each time. HC50 means the concentration causing 50% hemolysis.

[2] = test system: S. aureus; experiment: Fluorescence microscopy (DAPI/PI) of bacterial membranes, S. aureus; conditions: 2 h
Description: (§3) Fluorescence microscopy studies were conducted to evaluate the ability of compound 12 to compromise membranes of S. aureus (Gram-positive bacterium) and E. coli (Gram-negative bacterium). Fluorescent agent 4′,6-diamidino-2-phenylindole (DAPI) was used to stain membranes of bacterial cells with blue fluorescence regardless of cell viability, and the red fluorescence of propidium iodide (PI) due to the DNA intercalation was used to stain impaired membranes. After MRSA and E. Coli grew to mid-logarithmic phase, the compound 12 was incubated with the bacteria at 37° C. for 2 h. The mixture was then centrifuged at 5000 rpm for 15 min. The cell pellets were washed with the PBS buffer for three times, and incubated with PI ([…]) and DAPI (10 μg/mL) for 15 min sequentially on ice in the dark. The mixture was then centrifuged and the pellets were washed with the PBS buffer. Next, 10 μL of the samples were placed on chamber slides and observed under Zeiss Axio Image Zloptical microscope using 100× oil-immersion objective.

[3] = test system: vancomycin-resistant Enterococcus faecalis (ATCC 700802); experiment: MIC against VRE; conditions: Gram +; 16 h, 37° C.
Description: as §1, §2

[4] = test system: human red blood cells (hRBCs); experiment: Hemolytic assay
Description: The freshly drawn, K2EDTA treated human red blood cells (hRBCs) were washed with 1×PBS buffer, and centrifuged at 3500 rpm for 10 min. The step was repeated until the supernatant became clear. The supernatant was removed, and the RBCs were diluted into 5% v/v suspension. 50 μL of the suspension was incubated with 50 μL of compounds of different concentrations at 37° C. for 1 h. The mixture was centrifuged at 3500 rpm for 10 min. Subsequently, to 30 μL of the supernatant 100 μL PBS was added, and the absorbance of the mixture at 540 nm was read on a Biotek Synergy HT plate reader. The positive control was 2% Triton X-100, and the negative control was 1×PBS alone. The hemolysis activity was calculated by the formula % hemolysis=(Abssample−AbsPBS)/(AbsTriton−AbsPBS)×100%. The experiment was repeated at least three times with duplicates each time.

[5] = test system: P. aeruginosa (ATCC27853); experiment: MIC against P. aeruginosa; conditions: Pseudomonas aeruginosa, ATCC27853; Gram −; 16 h, 37° C.
Description: as §1, §2

[6] = test system: E. coli; experiment: Fluorescence microscopy (DAPI/PI) of bacterial membranes, E. coli; conditions: 10 μg/mL, 2 h, 37° C.
Description: as §3

CCCCCCN1C(=N)N(CC(=O)Nc2cccc(NC(=O)CN3C[C@H](Cc4ccccc4)N(CCCCCC)C3=N)c2)C[C@@H]1Cc1ccccc1 [Compound 12]
MIC [1]: 0.75 µg/mL | membrane integrity of S. aureus (PI red fluorescence) ([2]; 10 μg/mL, 37° C.): disrupted | aggregation of S. aureus ([2]; in the presence of compound): significant aggregation | MIC [3]: 0.75 µg/mL | selectivity, hemolytic activity against MIC values of MRSA [4]: 1534 folds | MIC [5]: 4 µg/mL | membrane integrity of E. coli (PI red fluorescence) [6]: disrupted
